Earlier results in patent US10112962B2, “Boron-based prodrug strategy for increased bioavailability and lower-dosage requirements for drug molecules containing at least one phenol (or aromatic hydroxyl) group” (XAVIER UNIVERSITY OF LOUISIANA, priority 2014, dated 2018).

Tests used:
[1] = literature statement
[2] = literature statement; remark: listed apart in the source

Compound	oral bioavailability [1]	water solubility [2]
O=C(c1ccc(OCCN2CCCCC2)cc1)c1c(-c2ccc(O)cc2)sc2cc(O)ccc12 [raloxifen, Raloxifene]	poor bioavailability	
C[C@]12CC[C@@H]3c4ccc(O)cc4C[C@@H](CCCCCCCCC[S+]([O-])CCCC(F)(F)C(F)(F)F)[C@H]3[C@@H]1CC[C@@H]2O (stereo partly shown) [Fulvestrant]	poor oral bioavailability	
O=C(Nc1ccc([N+](=O)[O-])cc1Cl)c1cc(Cl)ccc1O [niclosamide, Niclosamide]	low oral bioavailability	poor water solubility
